These results are taken from ChEMBL document CHEMBL3112505, “Discovery of novel indazole derivatives as dual angiotensin II antagonists and partial PPARγ agonists” (Bioorg Med Chem Lett, 2014).

The target in data set [1] is T1, Type-1 angiotensin II receptor (Homo sapiens, UniProt P30556).
T1 sequence (P30556 whole entry): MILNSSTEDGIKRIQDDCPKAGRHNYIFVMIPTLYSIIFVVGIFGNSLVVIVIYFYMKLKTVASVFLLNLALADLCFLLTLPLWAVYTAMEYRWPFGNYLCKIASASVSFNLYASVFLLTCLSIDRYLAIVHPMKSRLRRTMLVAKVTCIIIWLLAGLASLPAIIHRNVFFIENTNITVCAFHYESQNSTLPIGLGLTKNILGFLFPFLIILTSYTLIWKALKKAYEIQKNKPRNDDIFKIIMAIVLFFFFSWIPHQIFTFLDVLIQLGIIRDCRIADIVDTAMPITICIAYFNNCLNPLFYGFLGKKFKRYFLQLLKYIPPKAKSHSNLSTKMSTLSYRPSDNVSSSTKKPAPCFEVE
Nature of the data set: Antagonist activity at human AT1 receptor expressed in CHO cells measured after overnight incubation by luciferase reporter gene assay. Format: cell-based. On the technique in general: Reporter assays use an easily measured gene product as a stand-in for the process of interest.

The test system of data set [2] is Rattus norvegicus. Nature of the data set: Reduction in triglyceride level in Zucker fa/fa rat plasma at 1 mg/kg, po qd for 5 days relative to vehicle-treated control control. Format: functional, organism-based. Set-up: dose 1 mg/kg.
Data set [3] has as its system Rattus norvegicus. Nature of the data set: Reduction in free fatty acid level in Zucker fa/fa rat plasma at 1 mg/kg, po qd for 5 days relative to vehicle-treated control control. Details: dose 1 mg/kg. Format: functional, organism-based.
The test system of data set [4] is Rattus norvegicus. Nature of the data set: Toxicity in Zucker fa/fa rat assessed as increase in body weight gain at 1 mg/kg, po qd for 5 days relative to vehicle-treated control control. Details: dose 1 mg/kg, route oral. The format is organism-based. The conditions noted are these: in vivo, 120 h.
Data set [5] deals with Rattus norvegicus. Kind of data set: Reduction in insulin level in Zucker fa/fa rat plasma at 1 mg/kg, po qd for 5 days relative to vehicle-treated control control. Format: functional, organism-based. Set-up: dose 1 mg/kg.
The subject of data set [6] is Rattus norvegicus. Kind of data set: Toxicity in Zucker fa/fa rat assessed as increase in body weight gain at 75 mg/kg, po qd for 5 days relative to vehicle-treated control control. The format is organism-based. Details: dose 75 mg/kg, route oral. The conditions noted are these: in vivo, 120 h.
Data set [7] deals with T2, Peroxisome proliferator-activated receptor alpha (Mus musculus) (UniProt P23204).
T2 sequence (whole entry): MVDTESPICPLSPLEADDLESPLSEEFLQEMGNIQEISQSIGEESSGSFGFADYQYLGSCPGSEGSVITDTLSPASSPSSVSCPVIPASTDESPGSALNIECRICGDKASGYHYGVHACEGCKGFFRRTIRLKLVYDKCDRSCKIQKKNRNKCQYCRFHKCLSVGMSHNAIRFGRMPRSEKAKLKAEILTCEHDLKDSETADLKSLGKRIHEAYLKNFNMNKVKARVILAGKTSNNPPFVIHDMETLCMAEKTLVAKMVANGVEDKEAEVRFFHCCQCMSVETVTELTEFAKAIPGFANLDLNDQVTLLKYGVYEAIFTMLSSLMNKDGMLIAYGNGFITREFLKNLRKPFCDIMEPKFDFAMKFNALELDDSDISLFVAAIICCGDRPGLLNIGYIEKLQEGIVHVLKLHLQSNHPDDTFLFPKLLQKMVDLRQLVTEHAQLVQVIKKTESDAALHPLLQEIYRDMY
Nature of the data set: Agonist activity at mouse PPARalpha expressed in CV-1 cells by reporter gene assay relative to rosiglitazone.

Data set [8] has as its target T3, Peroxisome proliferator-activated receptor gamma (Mus musculus, UniProt P37238).
T3 sequence (P37238 whole entry): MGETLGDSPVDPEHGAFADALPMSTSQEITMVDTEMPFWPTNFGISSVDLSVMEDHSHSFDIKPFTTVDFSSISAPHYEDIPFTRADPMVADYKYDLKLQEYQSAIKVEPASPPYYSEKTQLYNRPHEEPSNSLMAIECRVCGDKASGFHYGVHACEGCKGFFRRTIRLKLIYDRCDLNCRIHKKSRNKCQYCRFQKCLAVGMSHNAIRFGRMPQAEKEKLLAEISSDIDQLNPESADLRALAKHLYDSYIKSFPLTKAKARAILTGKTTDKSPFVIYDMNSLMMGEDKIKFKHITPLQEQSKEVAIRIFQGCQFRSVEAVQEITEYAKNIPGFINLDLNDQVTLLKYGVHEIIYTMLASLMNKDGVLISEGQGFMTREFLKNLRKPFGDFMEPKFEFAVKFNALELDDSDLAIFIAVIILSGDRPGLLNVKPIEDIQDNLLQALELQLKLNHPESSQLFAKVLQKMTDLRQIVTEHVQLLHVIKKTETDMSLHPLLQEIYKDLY
Nature of the data set: Agonist activity at mouse PPARgamma expressed in CV-1 cells by reporter gene assay. The format is cell-based.

Data set [9] has as its target T4, Peroxisome proliferator-activated receptor alpha (Mus musculus, UniProt P23204).
T4 sequence (P23204 whole entry): T2 sequence (whole entry)
Nature of the data set: Agonist activity at mouse PPARalpha expressed in CV-1 cells by reporter gene assay. Format: cell-based.

Data set [10] concerns the target T5, Peroxisome proliferator-activated receptor gamma (Homo sapiens, UniProt P37231).
T5 sequence (P37231 whole entry): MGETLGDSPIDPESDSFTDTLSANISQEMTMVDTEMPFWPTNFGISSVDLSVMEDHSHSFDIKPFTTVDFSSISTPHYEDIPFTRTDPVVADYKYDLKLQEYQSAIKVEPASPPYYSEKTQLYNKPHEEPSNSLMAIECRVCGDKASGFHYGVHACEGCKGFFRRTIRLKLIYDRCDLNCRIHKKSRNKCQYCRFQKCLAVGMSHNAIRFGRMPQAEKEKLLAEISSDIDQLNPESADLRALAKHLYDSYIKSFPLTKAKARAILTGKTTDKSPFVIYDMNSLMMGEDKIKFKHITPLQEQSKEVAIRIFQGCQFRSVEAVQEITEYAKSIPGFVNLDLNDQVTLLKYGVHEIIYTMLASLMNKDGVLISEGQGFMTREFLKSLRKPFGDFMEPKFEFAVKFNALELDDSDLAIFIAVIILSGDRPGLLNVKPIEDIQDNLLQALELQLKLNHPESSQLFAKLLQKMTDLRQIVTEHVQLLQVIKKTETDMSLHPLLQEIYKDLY
Nature of the data set: Agonist activity at human PPARgamma expressed in CV-1 cells by reporter gene assay. The format is cell-based.

Data set [11] addresses T6, Peroxisome proliferator-activated receptor gamma (Mus musculus) (UniProt P37238).
T6 sequence (whole entry): T3 sequence (P37238 whole entry)
Kind of data set: Agonist activity at mouse PPARgamma expressed in CV-1 cells by reporter gene assay relative to rosiglitazone. The format is cell-based.

The target of data set [12] is T7, Peroxisome proliferator-activated receptor delta (Mus musculus, UniProt P35396).
T7 sequence (P35396 whole entry): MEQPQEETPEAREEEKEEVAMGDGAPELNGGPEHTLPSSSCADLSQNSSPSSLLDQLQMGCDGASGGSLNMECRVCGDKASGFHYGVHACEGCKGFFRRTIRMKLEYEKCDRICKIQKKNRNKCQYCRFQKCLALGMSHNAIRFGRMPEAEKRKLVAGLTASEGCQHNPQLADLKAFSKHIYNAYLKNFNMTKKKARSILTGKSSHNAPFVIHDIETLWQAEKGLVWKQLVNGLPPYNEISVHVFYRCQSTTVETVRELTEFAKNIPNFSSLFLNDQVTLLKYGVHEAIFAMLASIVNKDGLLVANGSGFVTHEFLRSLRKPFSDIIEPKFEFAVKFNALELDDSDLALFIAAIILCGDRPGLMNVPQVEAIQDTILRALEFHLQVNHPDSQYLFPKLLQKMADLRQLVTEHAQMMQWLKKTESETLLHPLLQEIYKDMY
Nature of the data set: Agonist activity at mouse PPARdelta expressed in CV-1 cells by reporter gene assay. Format: cell-based.

Data set [13] has as its target T6, Peroxisome proliferator-activated receptor gamma (Mus musculus). Kind of data set: Partial agonist activity at mouse PPARgamma expressed in CV-1 cells by reporter gene assay relative to rosiglitazone. Format: cell-based.
The target in data set [14] is T8, Peroxisome proliferator-activated receptor gamma (Homo sapiens) (UniProt P37231).
T8 sequence (whole entry): T5 sequence (P37231 whole entry)
Nature of the data set: Partial agonist activity at human PPARgamma expressed in CV-1 cells by reporter gene assay relative to rosiglitazone. The format is cell-based.

Data set [15] concerns the target T5, Peroxisome proliferator-activated receptor gamma. Kind of data set: Partial agonist activity at human PPARgamma expressed in CV-1 cells by reporter gene assay. Format: cell-based.
Data set [16] has as its target T3, Peroxisome proliferator-activated receptor gamma. Nature of the data set: Partial agonist activity at mouse PPARgamma expressed in CV-1 cells by reporter gene assay. The format is cell-based.

Activity calls are given as the source filed them. No cut-off for these calls is given here.

Usually IC50 stands for the point on the concentration scale where inhibition reaches its midpoint. `CCC(NC(=O)c1ccc2c(c1)c(C)c(C)n2Cc1ccc(-c2ccccc2C(=O)O)cc1)c1ccccc1` (centres undefined) returned an IC50 in data set [1] of more than 10000 nM.

Turning to `CN(CCOc1ccc(C[C@H](Nc2ccccc2C(=O)c2ccccc2)C(=O)O)cc1)c1ccccn1`, the result in the data set on Rattus norvegicus [2], in the data set with Rattus norvegicus [3] and in the data set on Rattus norvegicus [5] was Active. Besides, the Activity entry was “Toxic” with Rattus norvegicus [4] and “Non-toxic” with Rattus norvegicus [6].

Usually EC50 stands for the concentration at which the effect is half-maximal. Read a high EC50 as a need for much substance. `CCCc1c(Cc2ccc(-c3ccccc3C(=O)O)cc2)c2ccc(C(=O)NC(CC)c3ccccc3)cc2n1C` (centres undefined): the max activation was 90% in [7] and 42% in data set [11]. Moreover, the EC50 in data set [8] came to 3 nM; in [9], 170 nM; in data set [10], 2 nM. In addition, the IC50 in data set [1] is more than 10000 nM.

`CCCc1nc2ccc(C(=O)NC(CC)c3ccccc3)cc2n1Cc1ccc(-c2ccccc2C(=O)O)cc1` (centres undefined) yielded an IC50 in [1] of 288 nM.

Turning to `CCCc1nn2ccc(-c3nc4ccccc4n3CCC)cc2c1Cc1ccc(-c2ccccc2C(=O)O)cc1`, the EC50 in [8] is 380 nM; in data set [12], more than 10000 nM; in data set [9], more than 10000 nM; in [10], 280 nM. In data set [1], this compound gave an IC50 of 85 nM. In addition, the max activation in [11] was 27%.

For `CCCc1nn2ccc(C(=O)NC(CC)c3ccccc3)cc2c1Cc1ccc(-c2ccccc2C(=O)O)cc1` (centres undefined), the EC50 in data set [8] was 1020 nM; in data set [12] it was more than 10000 nM; in [9], more than 10000 nM; in [10], 390 nM. Further, it took 1690 nM to reach half-maximal inhibition in data set [1] (IC50). This compound came in with a max activation in data set [11] of 32%.

Turning to `CCCc1nn2ccc(-c3nc4ccccc4n3CCC)cc2c1Cc1ccc(-c2ccccc2-c2nnn[nH]2)cc1`, the EC50 in data set [8] was 130 nM; in [12], more than 10000 nM; in data set [9], more than 10000 nM; in data set [10], 80 nM. For the same compound, half-maximal inhibition in data set [1] (IC50) required 23 nM.

In the case of `CCCc1c(Cc2ccc(-c3ccccc3C(=O)O)cc2)c2cc(C(=O)NC(CC)c3ccccc3)ccc2n1OC` (centres undefined), the EC50 is 200 nM in [8], more than 10000 nM in data set [12], more than 10000 nM in [9] and 90 nM in [10]. Further, in data set [1], the IC50 is more than 10000 nM. The compound also had a max activation in data set [11] of 17%.

In the case of `CCCc1nn2ccc(C(=O)NC(CC)c3ccccc3)cc2c1Cc1ccc(-c2ccccc2-c2nn[nH]n2)cc1` (centres undefined), the max activation in [11] worked out at 9%.

In data set [10], `CCCc1nc2cc(C(=O)NC(CC)c3ccccc3)ccc2n1Cc1ccc(-c2ccccc2C(=O)O)cc1` (centres undefined) gave an EC50 of 2650 nM. Moreover, inhibition in data set [1] was half-maximal at 128 nM (IC50).

In data set [11], `CCCc1nn2ccc(-c3nc4ccccc4n3CCC)cc2c1Cc1ccc(-c2ccccc2-c2nn[nH]n2)cc1` returned a max activation of 60%.

Turning to `CCCc1[nH]c2ccc(C(=O)NC(CC)c3ccccc3)cc2c1Cc1ccc(-c2ccccc2C(=O)O)cc1` (centres undefined), the EC50 in [8] is 510 nM; in [9], more than 10000 nM; in data set [10], 350 nM. Moreover, the IC50 in data set [1] is more than 10000 nM. Moreover, the max activation in data set [11] is 24%.

Turning to `CCCc1[nH]c2cc(C(=O)NC(CC)c3ccccc3)ccc2c1Cc1ccc(-c2ccccc2C(=O)O)cc1` (centres undefined), the figures for the max activation in [7] and in data set [11] were 71% and 36%, respectively. In addition, the EC50 in [8] stood at 9 nM; in [9] it was 790 nM; in [10], 6 nM. In addition, the IC50 in [1] was more than 10000 nM.

Consider `CCCCn1c(-c2ccc3nn(CCC)c(Cc4ccc(-c5ccccc5C(=O)O)cc4)c3c2)nc2ccccc21`, for which the EC50 in data set [8] was 1390 nM; in [12] it was more than 10000 nM; in data set [9], more than 10000 nM; in data set [10], 640 nM. The compound further registered an IC50 in data set [1] of 60 nM. This compound gave a max activation in data set [11] of 37%.

As to `CCCn1nc2ccc(C(=O)NC(CC)c3ccccc3)cc2c1Cc1ccc(-c2ccccc2C(=O)O)cc1` (centres undefined), the max activation in data set [13] came out at 19%; in data set [14] it was 24%. In addition, the EC50 in [12] was more than 10000 nM; in [15] it was 130 nM; in data set [9], more than 10000 nM; in data set [16], 250 nM. The same compound gave an IC50 in data set [1] of 1000 nM.
